Assays:
[1] = biological target: T1, bovine testes hyaluronidase type I-S (Bos taurus, UniProt F1MTV1); experiment: turbidity […] nm, hyaluronic acid with acidic albumin; type: biochemical; conditions: phosphate 300 mM pH 5.35, 37°C, 45 min
T1 construct: gene SPAM1; native enzyme from bovine testes, commercial
T1 sequence (F1MTV1 36-553): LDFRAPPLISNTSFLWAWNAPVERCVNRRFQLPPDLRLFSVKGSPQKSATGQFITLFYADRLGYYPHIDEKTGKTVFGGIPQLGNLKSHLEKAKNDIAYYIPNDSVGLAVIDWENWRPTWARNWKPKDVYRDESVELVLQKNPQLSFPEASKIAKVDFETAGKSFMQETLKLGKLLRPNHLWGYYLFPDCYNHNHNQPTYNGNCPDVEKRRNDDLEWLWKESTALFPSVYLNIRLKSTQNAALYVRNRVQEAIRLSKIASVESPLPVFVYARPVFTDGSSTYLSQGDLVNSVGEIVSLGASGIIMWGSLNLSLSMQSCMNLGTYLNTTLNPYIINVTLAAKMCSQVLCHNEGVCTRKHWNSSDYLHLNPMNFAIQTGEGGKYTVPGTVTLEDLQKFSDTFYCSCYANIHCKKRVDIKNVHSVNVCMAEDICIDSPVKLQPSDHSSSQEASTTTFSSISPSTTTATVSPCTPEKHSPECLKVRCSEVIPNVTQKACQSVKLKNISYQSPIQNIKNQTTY

[2] = biological target: T2, porcine pancreas elastase (Sus scrofa, UniProt P00772); experiment: absorbance […] nm, p-nitroanilide release; type: biochemical
T2 construct: gene CELA1; native enzyme from porcine pancreas, commercial
T2 sequence (P00772 27-266): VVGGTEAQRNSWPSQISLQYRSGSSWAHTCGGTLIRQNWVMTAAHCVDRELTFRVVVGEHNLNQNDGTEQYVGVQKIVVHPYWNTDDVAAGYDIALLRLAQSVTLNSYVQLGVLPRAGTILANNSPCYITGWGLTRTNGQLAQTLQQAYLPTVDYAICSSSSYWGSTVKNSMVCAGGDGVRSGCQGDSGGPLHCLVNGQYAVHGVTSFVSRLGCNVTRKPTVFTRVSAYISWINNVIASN

[3] = biological target: T3, mushroom tyrosinase; experiment: absorbance […] nm, L-DOPA oxidation; type: biochemical; conditions: L-DOPA 1.5 mM stock (20 μL added), potassium phosphate 20 mM pH 6.8, room temperature, 15 min pre-incubation
T3 construct: gene PPO1; PPO3 (2Y9X) is only the docking model

[4] = biological target: T4, Collagenase from Clostridium histolyticum; experiment: absorbance […] nm, FALGPA hydrolysis; type: biochemical, Hathewaya histolytica; conditions: N-[3-(2-furyl)acryloyl]-Leu-Gly-Pro-Ala 1 mM, Tricine 50 mM pH 7.5, 37°C, 20 min pre-incubation
T4 construct: gene colG

Compound | IC50 [1] [µM] | IC50 [2] [µM] | IC50 [3] [µM] | IC50 [4] [µM]
CC(C)=CCc1c(O)cc2oc3cc(O)c(O)c(CC=C(C)C)c3c(=O)c2c1O [Gamma-mangostin] | 60.2 | 156 | 127 | 140
COc1c(O)cc2oc3cc(O)c(CC=C(C)C)c(O)c3c(=O)c2c1CC=C(C)C [Alpha-mangostin] | 39.5 | 50 | 173 | 23.8
COc1c(O)cc2oc3cc(O)c(CC=C(C)C)c(O)c3c(=O)c2c1CCC(C)(C)O [Garcinone D] | 204 | 49.8 | 252 | 159
CC(C)=CCc1c(O)cc2oc3cc(O)c(O)c(CCC(C)(C)O)c3c(=O)c2c1O [Garcinone C] | 180 | 49.1 | 159 | 79.2
